# Test results: patent US12077503B2, “Substituted cyclic amides and their use as herbicides” (FMC CORPORATION, priority 2015, dated 2024)
# Columns and labels:
# Test in all cases: Test A preemergence
# Assay type in all cases: in vivo
# [1] = tested on: pigweed (Amaranthus retroflexus); conditions: Amaranthus retroflexus, pre-emergence, 240 h; for pest or weed control at 125 g/ha: 125 g ai/ha, preemergence, 0 to 100 scale where 0 is no effect and 100 is complete control, read-out: Pigweed plant response rating; for pest or weed control at 500 g/ha: 500 g ai/ha, Preemergence, visual injury vs untreated controls after approximately 10 d, read-out: Pigweed plant response rating (0 to 100 scale where 0 is no effect and 100 is complete control)
# [2] = tested on: ragweed (common ragweed, Ambrosia elatior); conditions: Ambrosia artemisiifolia, pre-emergence, 240 h; for pest or weed control at 125 g/ha: 125 g ai/ha, preemergence, 0 to 100 scale where 0 is no effect and 100 is complete control, read-out: Ragweed plant response rating; for pest or weed control at 500 g/ha: 500 g ai/ha, Preemergence, visual injury vs untreated controls after approximately 10 d, read-out: Ragweed plant response rating (0 to 100 scale where 0 is no effect and 100 is complete control)
# Method in brief: (§1)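 Treatment is preemergence as a directed soil spray after planting, or postemergence at the one- to two-leaf stage, with test chemical in a non-phytotoxic solvent mixture plus surfactant. Plants stay in the greenhouse about 10 d before visual injury scoring on a 0 to 100 scale versus untreated controls.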
# [3] = tested on: ryegrass, Italian (Italian ryegrass, Lolium multiflorum); conditions: Lolium multiflorum, pre-emergence, 240 h; for pest or weed control at 125 g/ha: 125 g ai/ha, preemergence, 0 to 100 scale where 0 is no effect and 100 is complete control, read-out: Ryegrass, Italian plant response rating; for pest or weed control at 500 g/ha: 500 g ai/ha, Preemergence, visual injury vs untreated controls after approximately 10 d, read-out: Ryegrass, Italian plant response rating (0 to 100 scale where 0 is no effect and 100 is complete control)
# Method in brief: as §1
# [4] = tested on: giant foxtail (Setaria faberii); conditions: Setaria faberi, pre-emergence, 240 h; for pest or weed control at 125 g/ha: 125 g ai/ha, preemergence, 0 to 100 scale where 0 is no effect and 100 is complete control, read-out: Foxtail, Giant plant response rating; for pest or weed control at 500 g/ha: 500 g ai/ha, Preemergence, visual injury vs untreated controls after approximately 10 d, read-out: Foxtail, Giant plant response rating (0 to 100 scale where 0 is no effect and 100 is complete control)
# Method in brief: as §1
# Kochia (Kochia scoparia) = conditions: Bassia scoparia, pre-emergence, 240 h; for pest or weed control at 125 g/ha: 125 g ai/ha, preemergence, 0 to 100 scale where 0 is no effect and 100 is complete control, read-out: Kochia plant response rating; for pest or weed control at 500 g/ha: 500 g ai/ha, Preemergence, visual injury vs untreated controls after approximately 10 d, read-out: Kochia plant response rating (0 to 100 scale where 0 is no effect and 100 is complete control)
# Method in brief: as §1
SMILES,pest or weed control at 125 g/ha [1] [%],pest or weed control at 500 g/ha [1] [%],pest or weed control at 125 g/ha [2] [%],pest or weed control at 500 g/ha [2] [%],pest or weed control at 125 g/ha [3] [%],pest or weed control at 500 g/ha [3] [%],pest or weed control at 125 g/ha [4] [%],pest or weed control at 500 g/ha [4] [%],pest or weed control at 125 g/ha (Kochia (Kochia scoparia)) [%],pest or weed control at 500 g/ha (Kochia (Kochia scoparia)) [%]
CN1C[C@H](c2cc(F)cc(F)c2)[C@@H](C(=O)Nc2ncc(C(F)(F)F)cc2F)C1=O [Compound 868],0,0,0,0,0,0,20,60,0,0
CN1C[C@H](c2cc(F)cc(F)c2)[C@@H](C(=O)Nc2ccccc2[S@@+](C)[O-])C1=O [Compound 872],0,60,60,100,0,40,90,90,0,80
CN1C[C@H](c2cccc(COC(F)F)c2)[C@@H](C(=O)Nc2ccccc2S(C)(=O)=O)C1=O [Compound 877],0,0,0,60,0,20,90,90,60,80
COc1c(F)ccc([C@H]2CNC(=O)[C@@H]2C(=O)Nc2ccccc2F)c1Cl [Compound 881],0,0,0,0,30,60,80,90,30,60
COc1c(F)ccc([C@H]2CNC(=O)[C@@H]2C(=O)Nc2cccc(F)c2F)c1Cl [Compound 882],20,20,30,60,0,30,70,90,70,90
O=C1NC[C@H](c2ccc3c(c2)CCCO3)[C@H]1C(=O)Nc1ccccc1F [Compound 885],0,0,0,0,0,20,50,80,0,0
COc1c(F)ccc([C@H]2CN(C)C(=O)[C@@H]2C(=O)Nc2cccc(F)c2F)c1Cl [Compound 893],30,50,40,70,40,90,90,90,80,90
COc1c(F)ccc([C@H]2CN(C)C(=O)[C@@H]2C(=O)Nc2ccc(F)cc2F)c1Cl [Compound 894],20,50,0,40,50,60,90,100,60,90
CN1C[C@H](c2cc(F)c(C(F)(F)F)c(F)c2)[C@@H](C(=O)Nc2cccc(F)c2F)C1=O [Compound 898],60,80,60,60,40,70,90,90,70,90
